Source: the supplement of paper PMC11061612

Key:
Experiment in all cases: Bliss excess, mean over the matrix (fraction); higher = more synergy
[1] = test system: TOV-21G (Ovarian Carcinoma)
Outline: (§1)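 After 24 hours at 37°C and 5% CO2 in 1536-well plates, cells in DMEM/F12 or RPMI plus 10% FBS received two-drug dose matrices for 72 hours. Viability came from CellTiter-Glo 2.0 luminescence and was scaled as inhibition, anchored at 0 by vehicle wells and at 1 by blank wells. Combination Emax is taken as the second-highest inhibition in the matrix, and Bliss excess as the observed combination effect less EA + EB − EA·EB, with EA and EB the single-agent effects.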

[2] = test system: NCI-H1648 (Lung Adenocarcinoma)
Outline: as §1

[3] = test system: OVKATE (Ovarian Carcinoma)
Outline: as §1

HT-144 (Melanoma) = test system: HT-144 (Melanoma)
Outline: as §1

[4] = test system: CAL-85-1 (Breast Carcinoma)
Outline: as §1

[5] = test system: GRANTA-519 (B-Cell Non-Hodgkin's Lymphoma)
Outline: as §1

NCI-H2452 (Mesothelioma) = test system: NCI-H2452 (Mesothelioma)
Outline: as §1

[6] = test system: BT-474 (Breast Carcinoma)
Outline: as §1

SK-MEL-24 (Melanoma) = test system: SK-MEL-24 (Melanoma)
Outline: as §1

[7] = test system: NCI-H2009 (Lung Adenocarcinoma)
Outline: as §1

[8] = test system: JJN-3 (Plasma Cell Myeloma)
Outline: as §1

[9] = test system: NCI-H1944 (Lung Adenocarcinoma)
Outline: as §1

[10] = test system: SUP-HD1 (Hodgkin's Lymphoma)
Outline: as §1

[11] = test system: NCI-H2170 (Squamous Cell Lung Carcinoma)
Outline: as §1

[12] = test system: Daudi (Burkitt's Lymphoma)
Outline: as §1

[13] = test system: RPMI-8402 (T-Lymphoblastic Leukemia)
Outline: as §1

DK-MG (Glioblastoma) = test system: DK-MG (Glioblastoma)
Outline: as §1

[14] = test system: MDA-MB-175-VII (Breast Carcinoma)
Outline: as §1

[15] = test system: SBC-3 (Small Cell Lung Carcinoma)
Outline: as §1

[16] = test system: SNU-1 (Gastric Carcinoma)
Outline: as §1

Row | SMILES | Bliss excess [1] | Bliss excess [2] | Bliss excess [3] | Bliss excess (HT-144 (Melanoma)) | Bliss excess [4] | Bliss excess [5] | Bliss excess (NCI-H2452 (Mesothelioma)) | Bliss excess [6] | Bliss excess (SK-MEL-24 (Melanoma)) | Bliss excess [7] | Bliss excess [8] | Bliss excess [9] | Bliss excess [10] | Bliss excess [11] | Bliss excess [12] | Bliss excess [13] | Bliss excess (DK-MG (Glioblastoma)) | Bliss excess [14] | Bliss excess [15] | Bliss excess [16]
1 | C=CCn1c(=O)c2cnc(Nc3ccc(N4CCN(C)CC4)cc3)nc2n1-c1cccc(C(C)(C)O)n1 [AZD1775] + C[C@@H]1COCCN1C2=NC(=NC(=C2)C3(CC3)[S@](=N)(=O)C)C4=C5C=CNC5=NC=C4 [AZD6738] (first compound max 1 µM, partner max 10 µM) | -0.0523 | 0.0111 | -0.0703 | -0.0482 | -0.0511 | 0.0068 | -0.0518 | -0.0425 | -0.0189 | 0.0987 | 0.0559 | 0.0456 | -0.0282 | -0.0253 | 0.0329 | 0.0379 | -0.0342 | -0.0184 | 0.0197 | 
2 | CS(=O)(=O)CCNCc1ccc(-c2ccc3ncnc(Nc4ccc(OCc5cccc(F)c5)c(Cl)c4)c3c2)o1 [Lapatinib] + NC1(c2ccc(-c3nc4ccn5c(=O)[nH]nc5c4cc3-c3ccccc3)cc2)CCC1 [MK-2206] (first compound max 10 µM, 7x7, partner max 10 µM) |  | 0.0349 | -0.031 |  | -0.0016 |  | -0.0302 |  | -0.0572 | -0.0246 | 0.0508 | 0.0376 |  |  |  | 0.0064 |  | 0.0563 | 0.0258 | 
3 | Cc1c2c(nn1C)CSCc1cc(n(C)n1)CSc1cc(c3ccccc3c1)OCCCc1c(C(=O)O)n(C)c3c-2c(Cl)ccc13 [AZD5991] + Cc1cc2ncnn2cc1Nc1ncc2c(n1)n(C1CCOCC1)c(=O)n2C [AZD7648] (first compound max 1 µM, 7x7, partner max 10 µM) | -0.0461 | -0.0218 | -0.0347 | -0.0131 | -0.055 | -0.0268 | -0.0065 | -0.0305 | -0.0134 | -0.0188 | 0.0324 | -0.039 | -0.104 | -0.0144 | 0.0041 |  | -0.101 | -0.0055 | -0.0801 | -0.0307
4 | CN(CCO)CC[C@H](CSc1ccccc1)Nc1ccc(S(=O)(=O)NC(=O)c2ccc(N3CCC([C@@H](O)c4ccccc4-c4ccc(Cl)cc4)CC3)cc2)cc1S(=O)(=O)C(F)(F)F [AZD4320] + Cn1cnc2c(F)c(Nc3ccc(Br)cc3Cl)c(C(=O)NOCCO)cc21 [Selumetinib] (first compound max 1 µM, 7x7, partner max 3 µM) | 0.0593 | 0.0177 | -0.0247 | 0.15 | -0.0492 | 0.0155 | -0.0688 | -0.002 | -0.0168 | -0.006 |  | 0.0427 | 0.0036 | -0.0497 | 0.0037 | -0.0351 | 0.0286 | 0.0188 | -0.0148 | 0.0212
5 | CC(=O)c1c(C)c2cnc(Nc3ccc(N4CCNCC4)cn3)nc2n(C2CCCC2)c1=O [Palbociclib] + CN(CC[C@H](CSC1=CC=CC=C1)NC2=C(C=C(C=C2)S(=O)(=O)NC(=O)C3=CC=C(C=C3)N4CCC(CC4)[C@H](C5=CC=CC=C5C6=CC=C(C=C6)Cl)O)S(=O)(=O)C(F)(F)F)CCO [AZD4320] (first compound max 10 µM, 7x7, partner max 1 µM) | -0.0853 |  |  | -0.0774 |  | 0.0102 |  | -0.108 |  |  | -0.014 | -0.0915 | -0.0407 | -0.0809 | 0.0218 |  | -0.0456 |  |  | -0.066
6 | COc1nnc2ccc(N3CCC(c4ccc(OCCN5CCN(C)C(=O)[C@H]5C)cc4)CC3)nn12 [AZD5153] + CN(CC[C@H](CSC1=CC=CC=C1)NC2=C(C=C(C=C2)S(=O)(=O)NC(=O)C3=CC=C(C=C3)N4CCC(CC4)[C@H](C5=CC=CC=C5C6=CC=C(C=C6)Cl)O)S(=O)(=O)C(F)(F)F)CCO [AZD4320] (first compound max 1 µM, 7x7, partner max 1 µM) | 0.0211 |  |  | 0.0439 |  | 0.0352 |  | 0.0941 |  |  | -0.0443 | 0.0269 | -0.0094 | 0.0175 | 0.0159 |  | 0.0382 |  |  | 0.0023
7 | CCc1c2c(nc3ccc(O)cc13)-c1cc3c(c(=O)n1C2)COC(=O)[C@]3(O)CC [SN-38] + O=C(c1cc(Cc2n[nH]c(=O)c3ccccc23)ccc1F)N1CCN(C(=O)C2CC2)CC1 [Olaparib] (first compound max 0.3 µM, 7x7, partner max 10 µM) |  | 0.0133 | -0.0113 |  | 0.059 |  | 0.0422 |  | 0.0007 | 0.14 | 0.0187 | 0.025 | -0.0168 | 0.0726 | 0.122 | 0.0767 | 0.0193 | 0.0367 | 0.0513 | 0.0064
8 | O=C(c1cc(Cc2n[nH]c(=O)c3ccccc23)ccc1F)N1CCN(C(=O)C2CC2)CC1 [Olaparib] + CN(CC[C@H](CSC1=CC=CC=C1)NC2=C(C=C(C=C2)S(=O)(=O)NC(=O)C3=CC=C(C=C3)N4CCC(CC4)[C@H](C5=CC=CC=C5C6=CC=C(C=C6)Cl)O)S(=O)(=O)C(F)(F)F)CCO [AZD4320] (first compound max 10 µM, 7x7, partner max 1 µM) |  | -0.0497 | -0.0469 |  | 0.0221 |  | -0.0697 |  | -0.0365 | -0.0603 |  |  |  |  |  | 0.0077 |  | -0.0001 | 0.0197 | 
9 | Cc1c2c(nn1C)CSCc1cc(n(C)n1)CSc1cc(c3ccccc3c1)OCCCc1c(C(=O)O)n(C)c3c-2c(Cl)ccc13 [AZD5991] + CC(=O)O[C@H]1C(=O)[C@@]2(C)[C@H]([C@H](OC(=O)c3ccccc3)[C@]3(O)C[C@H](OC(=O)[C@H](O)[C@@H](NC(=O)c4ccccc4)c4ccccc4)C(C)=C1C3(C)C)[C@]1(OC(C)=O)CO[C@@H]1C[C@@H]2O [Paclitaxel] (first compound max 1 µM, 7x7, partner max 3 µM) |  | -0.0144 | -0.0107 |  | -0.0082 |  | 0.0378 |  | -0.0449 | 0.0027 |  |  |  |  |  | 0.0139 |  | 0.102 | -0.0404 | 
10 | C[C@@H](Oc1cc(-c2cnn(C3CCNCC3)c2)cnc1N)c1c(Cl)ccc(F)c1Cl [Crizotinib] + CC1=C(C(=CC=C1)Cl)NC(=O)C2=CN=C(S2)NC3=CC(=NC(=N3)C)N4CCN(CC4)CCO [Dasatinib] (first compound max 10 µM, 7x7, partner max 2 µM) |  | 0.0331 | 0.06 |  | 0.001 |  | 0.0069 |  | -0.0523 | 0.0662 |  |  |  |  |  | 0.0006 |  | -0.0527 | 0.0493 | 
11 | O=C(c1cc(Cc2n[nH]c(=O)c3ccccc23)ccc1F)N1CCN(C(=O)C2CC2)CC1 [Olaparib] + COc1nnc2ccc(N3CCC(c4ccc(OCCN5CCN(C)C(=O)[C@H]5C)cc4)CC3)nn12 [AZD5153] (first compound max 10 µM, 7x7, partner max 1 µM) |  | -0.0388 | -0.0686 |  | -0.026 |  | -0.0361 |  | -0.0814 | -0.044 |  |  |  |  |  | -0.0277 |  | -0.0024 | -0.0786 | 
12 | C[C@@H]1COCCN1c1cc(C2([S@](C)(=N)=O)CC2)nc(-c2ccnc3[nH]ccc23)n1 [AZD6738] + Nc1ccn([C@@H]2O[C@H](CO)[C@@H](O)C2(F)F)c(=O)n1 [Gemcitabine] (first compound max 10 µM, 7x7, partner max 0.3 µM) |  | 0.0542 | -0.0172 |  | 0.0227 |  | 0.0333 |  | 0.0379 | 0.0954 |  |  |  |  |  | 0.0319 |  | -0.0368 | 0.0306 | 
13 | O=C(c1cc(Cc2n[nH]c(=O)c3ccccc23)ccc1F)N1CCN(C(=O)C2CC2)CC1 [Olaparib] + CC1(C)CCC(CN2CCN(c3ccc(C(=O)NS(=O)(=O)c4ccc(NCC5CCOCC5)c([N+](=O)[O-])c4)c(Oc4cnc5[nH]ccc5c4)c3)CC2)=C(c2ccc(Cl)cc2)C1 [Venetoclax] (first compound max 10 µM, 7x7, partner max 1 µM) |  | -0.0403 | -0.0355 |  | -0.026 |  | -0.0646 |  | -0.0534 | -0.0323 |  |  |  |  |  | -0.0163 |  | -0.0483 | -0.0063 | 
14 | Cc1c2c(nn1C)CSCc1cc(n(C)n1)CSc1cc(c3ccccc3c1)OCCCc1c(C(=O)O)n(C)c3c-2c(Cl)ccc13 [AZD5991] + C[C@@H]1COCCN1C2=NC(=NC(=C2)C3(CC3)[S@](=N)(=O)C)C4=C5C=CNC5=NC=C4 [AZD6738] (first compound max 1 µM, 7x7, partner max 10 µM) | 0.0322 | 0.0052 | -0.0421 | 0.0039 | -0.0233 | 0.0107 | 0.0425 | 0.0367 | 0.0025 | 0.0199 | -0.0071 |  | -0.0279 | 0.0272 | 0.0874 | -0.0027 | 0.046 | 0.0187 | 0.0405 | 0.035
